Measured values published in US20230405071A1, “COMPOSITIONS AND METHODS USEFUL FOR MANAGEMENT OF BLOOD SUGAR” (SOLVEAT FUNCTIONAL NUTRITION SOLUTIONS LTD., priority 2020, published 2023).

Columns and labels:
[1] = test system: L6 myotubes; assay: Glucose uptake colorimetric assay (2-deoxy glucose) in differentiated L6 cells; type: cell-based; settings: insulin challenge versus serum-free control (FIG. 2)
Method: The objective of the study was to evaluate the anti-diabetic action of herbal blends. The ability to enhance glucose consumption by skeletal muscle was evaluated in L6 myotubes model in comparison to various control groups, including two known traditional reference formulae.
Cell culturing, materials preparations and all treatments were performed under sterile conditions. The L6 Cells culture medium comprised A-MEM supplemented with 100 U/ml penicillin and 100 μg/ml streptomycin and 10% FBS, sterilely filtered. The L6 cells differentiation medium comprised α-MEM supplemented with 100 U/ml penicillin and 100 μg/ml streptomycin and 2% FBS, sterilely filtered. […]
Glucose uptake assay was performed using Glucose Uptake Colorimetric Assay Kit in the non-radioactive 2-deoxy glucose derivative, according to the manufacturers' instructions in KRBH buffer, on differentiated cells. Colorimetric data was quantified by the use of a standard curve. Glucose uptake in the control (naïve cells), vehicle (DDW), and insulin-treated cells was measured.
Glucose uptake assay was then performed for the two concentrations of tested items: at 50 μg/mL and at 5 μg/mL. […] It can be readily appreciated from the FIG. 3 that the composition of eight ingredients composition was equipotent to QWS and BHT (denoted as “c1” and c2”) at the concentration of 50 μg/mL. […]

[2] = human, in vivo
Method: Patient 1: a person, suffering from diabetic leg complications and a non-healing wound on the minimus, indicated for amputation. The patient was treated with the composition as in the example 5, TI.1-8HC, 3 grams per day, for 20 days. The treatment was supported with suitable acupuncture protocol, and topical antibiotic preparations.
Patient 2: a person, suffering from diabetes, a completer of the clinical trial similar to the described in the Example 3, proceeded with the open-label extension for further 3 months and achieved a 24% reduction in the fasting glucose levels. Thereafter the dose was increased to 1500 mg twice daily, and after one month a complete control over fasting glucose level has been achieved (below 140 mg/dL). Low-carbohydrate diets was prescribed to maintain the achievement. The patient presented a year after with fasting blood glucose of over 160; requested and was prescribed raw fan shi liu ye 10000 mg per day (as decoction—10 minutes boiling, chilling, and consumption). After 10 days the fasting blood glucose declined to between 120 and 130 mg/dL, but the patient suffered from fatigue and reverted to the experimental chocolate.
Patient 3: a person, presented during COVID-19 pandemics with fasting blood glucose of 150 mg/dL, HA1C of 7.4, with anxiety and uncontrolled eating. […]

Substance: insulin
- glucose uptake by muscle cells [1]: significantly increased

Substance: Psidium guajava L. [fan shi liu ye]
- tolerability of treatment over extended time [2]: could not be well tolerated
